# Measured values as given in paper PMC3512521, “Synthetic metabolic engineering-a novel, simple technology for designing a chimeric metabolic pathway” (Microbial Cell Factories, 2012).
# Legend:
# Assay type in all cases: biochemical
# [1] = target: T1, PFK (6-phosphofructokinase) (Thermus thermophilus, UniProt P21777); assay: coupled assay, NAD+ reduction at […] nm; settings: 0.1 mM substrate, 0.2 mM ATP, 5 mM MgCl2, 0.5 mM MnCl2, pH 7.0, 50 °C
# T1 construct: gene pfkA; heat-treated lysate of recombinant E. coli; native form, untagged; Riken HB8 expression plasmid
# T1 sequence (P21777 whole entry): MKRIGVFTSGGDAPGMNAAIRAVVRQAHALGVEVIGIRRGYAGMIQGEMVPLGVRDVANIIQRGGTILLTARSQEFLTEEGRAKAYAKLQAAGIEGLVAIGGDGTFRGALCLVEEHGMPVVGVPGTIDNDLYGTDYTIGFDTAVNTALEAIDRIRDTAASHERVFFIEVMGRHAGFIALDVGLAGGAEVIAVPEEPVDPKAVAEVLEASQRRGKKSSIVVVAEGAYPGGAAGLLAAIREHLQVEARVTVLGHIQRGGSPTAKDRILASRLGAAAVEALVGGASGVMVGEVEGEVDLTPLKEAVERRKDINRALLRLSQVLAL
# [2] = target: T2, Thermus lactate dehydrogenase (LDH) (Thermus thermophilus, UniProt Q5SJA1); assay: spectrophotometric NADH oxidation at […] nm; settings: 0.2 mM pyruvate, 0.2 mM NADH, pH 7.0, 50 °C; inhibitor
# T2 construct: heat-treated (70 °C, 30 min) lysate of recombinant E. coli; native form, untagged
# T2 sequence (Q5SJA1 whole entry): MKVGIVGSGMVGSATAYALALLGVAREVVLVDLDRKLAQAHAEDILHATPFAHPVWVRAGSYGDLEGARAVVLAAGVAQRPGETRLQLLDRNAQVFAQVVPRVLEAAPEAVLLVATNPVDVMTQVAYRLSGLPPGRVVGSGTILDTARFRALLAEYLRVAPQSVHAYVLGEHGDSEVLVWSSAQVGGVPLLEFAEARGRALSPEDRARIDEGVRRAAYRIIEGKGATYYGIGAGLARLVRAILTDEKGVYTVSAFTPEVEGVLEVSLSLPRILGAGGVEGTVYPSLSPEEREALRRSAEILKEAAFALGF
# [3] = target: T3, malate/lactate dehydrogenase (MLDH) (Thermus thermophilus, UniProt Q53W84); assay: NADH oxidation at […] nm; settings: 0.2 mM pyruvate, 0.2 mM NADH, 5 mM MgCl2, 0.5 mM MnCl2, pH 7.0, 50 °C
# T3 construct: gene TTHB078; heat-treated lysate of recombinant E. coli; native form, untagged; Riken HB8 expression plasmid
# T3 sequence (Q53W84 entry or part of it): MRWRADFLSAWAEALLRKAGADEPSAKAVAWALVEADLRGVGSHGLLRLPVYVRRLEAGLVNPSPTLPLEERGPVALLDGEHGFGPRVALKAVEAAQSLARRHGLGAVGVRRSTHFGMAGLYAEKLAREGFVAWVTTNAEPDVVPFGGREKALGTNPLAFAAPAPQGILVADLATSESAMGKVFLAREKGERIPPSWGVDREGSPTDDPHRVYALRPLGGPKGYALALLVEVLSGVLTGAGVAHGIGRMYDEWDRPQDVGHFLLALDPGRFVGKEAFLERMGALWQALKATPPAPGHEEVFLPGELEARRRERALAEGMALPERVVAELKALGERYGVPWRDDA
# [4] = target: T4, FBA (fructose-bisphosphate aldolase) (Thermus thermophilus, UniProt Q5SHF7); assay: coupled assay, NAD+ reduction at […] nm; settings: 0.1 mM substrate, 5 mM MgCl2, 0.5 mM MnCl2, pH 7.0, 50 °C
# T4 construct: gene TTHA1773; heat-treated lysate of recombinant E. coli; native form, untagged; Riken HB8 expression plasmid
# T4 sequence (Q5SHF7 1-305): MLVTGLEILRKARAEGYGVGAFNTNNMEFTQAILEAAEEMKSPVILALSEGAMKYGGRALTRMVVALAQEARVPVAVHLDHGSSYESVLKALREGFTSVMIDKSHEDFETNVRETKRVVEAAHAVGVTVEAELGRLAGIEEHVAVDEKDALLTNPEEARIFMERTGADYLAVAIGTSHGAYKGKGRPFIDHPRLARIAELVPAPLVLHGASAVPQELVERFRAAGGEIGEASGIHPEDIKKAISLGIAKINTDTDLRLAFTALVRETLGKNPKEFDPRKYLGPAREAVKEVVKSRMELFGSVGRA
structure (smiles),measurement,setting,value
Nc1ncnc2c1ncn2[C@@H]1O[C@H](COP(=O)(O)OP(=O)(O)OP(=O)(O)O)[C@@H](O)[C@H]1O [ATP],"coupled assay, NAD+ reduction at 340 nm",[1],phosphorylation of F6P catalyzed by PFK
NC(=O)c1ccc[n+]([C@@H]2O[C@H](COP(=O)(O)OP(=O)(O)OC[C@H]3O[C@@H](n4cnc5c(N)ncnc54)[C@H](O)[C@@H]3O)[C@@H](O)[C@H]2O)c1 [NAD^+],% decrease in activity at 1 mM,[2],95%
CC(=O)C(=O)O [pyruvate],NADH oxidation at 340 nm,[3],The enzyme was confirmed to show pyruvate reducing activity
"O=P(O)(O)OC[C@H]1OC(O)(COP(=O)(O)O)[C@@H](O)[C@@H]1O (stereo partly shown) [fructose-1,6-bisphosphate]","coupled assay, NAD+ reduction at 340 nm",[4],"fructose-6-phosphate, fructose-1,6-bisphosphate, dihydroxyacetone phosphate"
